{"source": "patent US20230226121A1", "about": "“Honey Foam” (priority 2022, published 2023)", "origin": "cited, not measured here", "key": {"[1]": {"system": "Escherichia Coli ATCC 25922"}, "[2]": {"system": "Staphylococcus aureus ATCC 29213"}}}
{"smiles": "CCN(CC)CC(=O)Nc1c(C)cccc1C", "note": "[lidocaine]", "values": [{"measurement": "MIC", "setting": "[1]", "value": 5, "unit": "Mg/ml"}, {"measurement": "MIC", "setting": "[2]", "value": 20, "unit": "Mg/ml"}]}
